Experimental findings from patent US12552783B2, “Modulators of proteolysis and associated methods of use” (Arvinas Operations, Inc., priority 2018, dated 2026) are described below.

The assay addresses KRas (Homo sapiens, UniProt P01116, G12C). Description: KRas degradation in NCI-H2030 cells by Western blot, normalized to GAPDH (data of Table 14). Format: cell-based. Also noted: host or cells: NCI-H2030. As to conditions: for Dmax: NCI-H2030. The protocol:
Cell Lines, Antibodies, and Reagents. NCI-H2030 (CRL-5914) and SW1573 (CRL-2170) cells were purchased from ATCC. Both cell lines are homozygous for the G12C mutation in KRas. NCI-H2030 cells were cultured in RPMI-1640 medium containing 1% penicillin-streptomycin and 10% fetal bovine serum (FBS). SW1573 cells were cultured in DMEM containing 1% penicillin-streptomycin and 10% FBS. The KRas detection antibody (Cat. No. LS-C175665) was purchased from LifeSpan Biosciences and was used at a dilution of 1:2000. GAPDH was detected using an antibody purchased from Cell Signaling Technology (Cat. No. 5174) and was diluted 1:3000. Secondary anti-mouse and anti-rabbit detection antibodies were purchased from Cell Signaling Technology (Cat. Nos. 7076 and 7074, respectively).
Compound Treatment and Western Blotting of the Data of Table 14. Either NCI-H2030 or SW1573 cells were plated in 12-well plates and allowed to adhere overnight at 37° C. in an incubator containing 5% CO2. The following day, the medium was replaced with the appropriate medium lacking FBS to induce starvation. Cells were returned to the incubator for an additional 24 hours following media exchange. […] Cells were treated with VHL-based compounds for 24 hours and all other compounds for 72 hours. Following treatment, cells were lysed in RIPA buffer (Thermo Fisher Cat. No. 89900) containing phosphatase (Thermo Fisher Cat. No. 1861277) and protease (Thermo Fisher Cat. No. 78429) inhibitor cocktails. Lysates were cleared at 13,000 rpm for 15 minutes and supernatants were assayed for total protein concentration using the Pierce BCA assay system (Thermo Fisher Cat. No. 23225). For each sample, 10 μg total protein was resolved on a 12% Bis-Tris gel and then transferred to a nitrocellulose membrane. After blocking in 3% BSA in TBST (Tris-buffered Saline with 0.1% Tween-20) for 1 hour at room temperature, membranes were probed with the primary antibody (LS Bio Cat. No. LS-C175665) overnight at 4° C. After incubation with the secondary antibody, the following day membranes were visualized using the SuperSignal™ West Femto substrate (Thermo Fisher Cat. No. 34095). The KRas signal in each lane was normalized to GAPDH and percent degradation was either estimated as less than 25% by visual inspection (C in Table 13) or quantitated relative to the DMSO control lane using BIO-RAD Image Lab 5.2.1, and all data was plotted using GraphPad PRISM 6.07.
DC50 is the half-maximal degradation concentration—i.e., the concentration at which 50% degradation is observed. DMax is the maximum degradation efficacy is achieved—i.e., the maximal degradation observed) degradation data.
In general terms: A western blot detects proteins with antibodies after separation by electrophoresis.

Take `Cc1ncsc1-c1ccc([C@H](C)NC(=O)[C@@H]2C[C@@H](O)CN2C(=O)[C@@H](NC(=O)COCCOCCN(C)C(=O)CCNc2nc(N3CCN(C(N)=O)CC3)c3cc(Cl)c(-c4cc(O)cc5ccccc45)c(F)c3n2)C(C)(C)C)cc1` [compound 182, 4-(6-chloro-8-fluoro-2-(((S)-14-((2S,4R)-4-hydroxy-2-(((S)-1-(4-(4-methylthiazol-5-yl)phenyl)ethyl)carbamoyl)pyrrolidine-1-carbonyl)-4,15,15-trimethyl-3,12-dioxo-7,10-dioxa-4,13-diazahexadecyl)amino)-7-(3-hydroxynaphthalen-1-yl)quinazolin-4-yl)piperazine-1-carboxamide]: the Dmax was ≤ 35%. Also, under “H2030, 0.3 μM”, the “Percent Degradation at Indicated Concentration (μM)” value was “C (Percent Degradation: C ≤ 35)”. The “Percent Degradation at Indicated Concentration (μM)” value (H2030, 1 μM) is “C (Percent Degradation: C ≤ 35)”. Further, where the note is “H2030, 3 μM”, the “Percent Degradation at Indicated Concentration (μM)” value is on record as “C (Percent Degradation: C ≤ 35)”.
For `C=CC(=O)N1CCN(c2nc(NCCC(=O)N(C)CCOCCOCCOCCNC(=O)c3ccc(NC(=O)[C@@H]4N[C@@H](CC(C)(C)C)[C@](C#N)(c5ccc(Cl)cc5F)[C@H]4c4cccc(Cl)c4F)c(OC)c3)nc3c(F)c(-c4cc(O)cc5ccccc45)c(Cl)cc23)CC1` [compound 303, (2R,3S,4R,5S)-N-(4-((15-((4-(4-acryloylpiperazin-1-yl)-6-chloro-8-fluoro-7-(3-hydroxynaphthalen-1-yl)quinazolin-2-yl)amino)-12-methyl-13-oxo-3,6,9-trioxa-12-azapentadecyl)carbamoyl)-2-methoxyphenyl)-3-(3-chloro-2-fluorophenyl)-4-(4-chloro-2-fluorophenyl)-4-cyano-5-neopentylpyrrolidine-2-carboxamide], the Dmax is ≤ 35%. The “Percent Degradation at Indicated Concentration (μM)” value (H2030, 0.3 μM) is on record as “C (Percent Degradation: C ≤ 35)”. The “Percent Degradation at Indicated Concentration (μM)” value (H2030, 1 μM) is given as “C (Percent Degradation: C ≤ 35)”. Further, the “Percent Degradation at Indicated Concentration (μM)” value (H2030, 3 μM) was “C (Percent Degradation: C ≤ 35)”.
Regarding `C=CC(=O)N1CCN(c2nc(NCCC(=O)N(C)CCOCCOCCOCC(=O)N[C@H](C(=O)N3C[C@H](O)C[C@H]3C(=O)N[C@@H](C)c3ccc(-c4scnc4C)cc3)C(C)(C)C)nc3c(F)c(-c4cc(O)cc5ccccc45)c(Cl)cc23)CC1` [compound 193, (2S,4R)-1-((2S)-18-((4-(4-acryloylpiperazin-1-yl)-6-chloro-8-fluoro-7-(3-hydroxynaphthalen-1-yl)quinazolin-2-yl)amino)-2-(tert-butyl)-15-methyl-4,16-dioxo-6,9,12-trioxa-3,15-diazaoctadecanoyl)-4-hydroxy-N-((S)-1-(4-(4-methylthiazol-5-yl)phenyl)ethyl)pyrrolidine-2-carboxamide], where the note is “H2030 cells, 0.3 μM”, the “Percent Degradation at Indicated Concentration (μM): 0.3” value (“Percent Degradation … 0.3” for short) is on record as “C (C ≤ 35)”. The “Percent Degradation at Indicated Concentration (μM): 1” value (“Percent Degradation … 1” below) (H2030 cells, 1 μM) is listed as “C (C ≤ 35)”. Further, where the note is “H2030 cells, 3 μM”, the “Percent Degradation at Indicated Concentration (μM): 3” value (“Percent Degradation … (μM): 3” for short) is “C (C ≤ 35)”. Further, the Dmax (H2030 cells) was ≤ 35%.
On to `C=CC(=O)N1CCN(c2nc(NCCC(=O)N(C)CCOCCOCCOCCOCC(=O)N[C@H](C(=O)N3C[C@H](O)C[C@H]3C(=O)N[C@@H](C)c3ccc(-c4scnc4C)cc3)C(C)(C)C)nc3c(F)c(-c4cc(O)cc5ccccc45)c(Cl)cc23)CC1` (racemic) [compound 195, (2RS,4SR)-1-((RS)-21-((4-(4-acryloylpiperazin-1-yl)-6-chloro-8-fluoro-7-((RS)-3-hydroxynaphthalen-1-yl)quinazolin-2-yl)amino)-2-(tert-butyl)-18-methyl-4,19-dioxo-6,9,12,15-tetraoxa-3,18-diazahenicosanoyl)-4-hydroxy-N-((RS)-1-(4-(4-methylthiazol-5-yl)phenyl)ethyl)pyrrolidine-2-carboxamide], for which the “Percent Degradation at Indicated Concentration (μM)” value (H2030, 3 μM) is reported as “C (Percent Degradation: C ≤ 35)”.
As for `C=CC(=O)N1CCN(c2nc(O[C@H](C)CN3CCC(OCCOCC(=O)N[C@H](C(=O)N4C[C@H](O)C[C@H]4C(=O)N[C@@H](C)c4ccc(-c5scnc5C)cc4)C(C)(C)C)CC3)nc3c2CCN(c2cc(O)cc4ccccc24)C3)CC1` [compound 406, (2S,4R)-1-((S)-2-(2-(2-((1-((R)-2-((4-(4-acryloylpiperazin-1-yl)-7-(3-hydroxynaphthalen-1-yl)-5,6,7,8-tetrahydropyrido[3,4-d]pyrimidin-2-yl)oxy)propyl)piperidin-4-yl)oxy)ethoxy)acetamido)-3,3-dimethylbutanoyl)-4-hydroxy-N-((S)-1-(4-(4-methylthiazol-5-yl)phenyl)ethyl)pyrrolidine-2-carboxamide], the “Percent Degradation at Indicated Concentration (μM)” value is, setting by setting: (H2030 cells, 0.3 μM) “C (Percent Degradation: C ≤ 35)”; (H2030 cells, 1 μM) “C (Percent Degradation: C ≤ 35)”; (H2030 cells, 3 μM) “C (Percent Degradation: C ≤ 35)”.
For the molecule `C=CC(=O)N1CCN(c2nc(NCCC(=O)N(C)CCOc3ccc4c(c3)CN(C3CCC(=O)NC3=O)C4=O)nc3c(F)c(-c4cc(O)cc5ccccc45)c(Cl)cc23)CC1` (stereo not shown) [compound 64, 3-((4-(4-acryloylpiperazin-1-yl)-6-chloro-8-fluoro-7-(3-hydroxynaphthalen-1-yl)quinazolin-2-yl)amino)-N-(2-((2-(2,6-dioxopiperidin-3-yl)-1-oxoisoindolin-5-yl)oxy)ethyl)-N-methylpropanamide], the “Percent Degradation … 0.3” value (H2030 cells, 0.3 μM) is given as “C (C ≤ 35)”. Moreover, the “Percent Degradation … 1” value (H2030 cells, 1 μM) is on record as “C (C ≤ 35)”. For the same molecule, the “Percent Degradation … (μM): 3” value (H2030 cells, 3 μM) is reported as “C (C ≤ 35)”. In addition, the Dmax (H2030 cells) was ≤ 35%.
On to `C=CC(=O)N1CCN(c2nc(NCCC(=O)N(C)CCOCCOCCOCCOc3ccc4c(c3)CN(C3CCC(=O)NC3=O)C4=O)nc3c(F)c(-c4cc(O)cc5ccccc45)c(Cl)cc23)CC1` (stereo not shown) [compound 67, 3-((4-(4-acryloylpiperazin-1-yl)-6-chloro-8-fluoro-7-(3-hydroxynaphthalen-1-yl)quinazolin-2-yl)amino)-N-(2-(2-(2-(2-((2-(2,6-dioxopiperidin-3-yl)-1-oxoisoindolin-5-yl)oxy)ethoxy)ethoxy)ethoxy)ethyl)-N-methylpropanamide], for which, for the setting “H2030 cells, 0.3 μM”, the “Percent Degradation … 0.3” value was “C (C ≤ 35)”. The “Percent Degradation … 1” value (H2030 cells, 1 μM) was “C (C ≤ 35)”. In addition, under “H2030 cells, 3 μM”, the “Percent Degradation … (μM): 3” value was “C (C ≤ 35)”. Further, under “H2030 cells”, the Dmax was ≤ 35%.
For `C=CC(=O)N1CCN(c2nc(NCCC(=O)N(C)CCOCCOCC(=O)N[C@H](C(=O)N3C[C@H](O)C[C@H]3C(=O)N[C@@H](C)c3ccc(-c4scnc4C)cc3)C(C)(C)C)nc3c(F)c(-c4c(O)cccc4F)c(Cl)cc23)CC1` (atropisomer, axis not shown) [compound 207, (2S,4R)-1-((S)-15-(((S)-4-(4-acryloylpiperazin-1-yl)-6-chloro-8-fluoro-7-(2-fluoro-6-hydroxyphenyl)quinazolin-2-yl)amino)-2-(tert-butyl)-12-methyl-4,13-dioxo-6,9-dioxa-3,12-diazapentadecanoyl)-4-hydroxy-N-((S)-1-(4-(4-methylthiazol-5-yl)phenyl)ethyl)pyrrolidine-2-carboxamide], for the setting “H2030, 3 μM”, the “Percent Degradation at Indicated Concentration (μM)” value is recorded as “C (Percent Degradation: C ≤ 35)”.

By Dmax is commonly meant the greatest extent of degradation seen. A higher Dmax goes with a fuller loss of target.
